Experimental data: patent publication US12287332B2, “Test cartridges” (First Light Diagnostics, Inc., priority 2018, dated 2025)
Converted amounts (≈) assume the structure as drawn.

How the values were obtained:
Format in all cases: cell-based
[1] = tested on: K. pneumoniae strain in clinical urine sample BIUR0084; assay: Automated MultiPath AST cartridge on clinical urine, Example 8; conditions: 4 h growth, fold growth value of 2, matched CLSI broth microdilution
[2] = tested on: K. pneumoniae CDC0126; assay: Novel rapid AST (4 h differential growth, FISH cell counting) in urine matrix, Example 7; conditions: Klebsiella pneumoniae, 4 h growth, fold-growth threshold 20, read-out: MIC generated by novel rapid AST method
Experimental: Bacterial cell preparation: 50 bacterial strains with known resistance profiles were collected from either the ATCC or from the CDC antibiotic resistance bank (AR bank) and are shown in Table A. Bacterial cultures for each of these were obtained by inoculating Trypticase Soy Broth (TSB, Hardy Diagnostics cat. U65) with 3 to 5 colonies from fresh tryptic soy agar plates (TSA, BD cat. 221185) and growing for 1.5 to 3 hours at 35° C. to achieve log-phase growth. Using optical density at 600 nm to estimate cell concentration, each culture was diluted to approximately 5×10^6 colony-forming units (CFU)/mL in cation-adjusted Mueller Hinton II (MHBII, Teknova cat. M5860).
A reaction mixture was prepared consisting of 30 μL processed urine, 10 μL of the 5×10^6 CFU/mL bacterial dilution, 60 μL MHBII (1× final concentration in 100 μL) and the appropriate species-specific Alexa647N-labeled DNA oligonucleotide FISH probe and its associated unlabeled DNA helper probes for the target bacterial species. […] 10 μL of the prepared magnetic particle mixture was then added to the well. […]
Four Hour Growth: While the time zero cell quantification was occurring, 12 μL of prepared bacterial culture, 36 uL pooled human urine processed as done for the assay time zero, 60 uL of 2×MHB II (Teknova, cat. #M5860) and 2 uL water was added to each well of the prepared antibiotic plate. […]

[3] = tested on: E. coli ATCC 25922; assay: Novel 4.5-hour AST in presence of beta-lactamase producing K. pneumoniae, Example 11; conditions: Escherichia coli, ATCC25922, 4.5 h; sensitive E. coli strain; increasing amounts of beta-lactamase producing K. pneumoniae; read-out: MIC, novel 4.5-hour AST method
Experimental: Experimental procedure. Preparation of Antibiotic Plates: Antibiotic plates prepared as described in Impact of Non-Sterile Sample on Target MIC example.
E. coli was diluted to 5×10^5 CFU/mL (CLSI standard concentration) while K. pneumoniae was diluted to various inoculum (ranging from 1×10^6 and 5×10^8 CFU/mL).
30 μL of each processed urine was added to 70 μL of 1× cation-adjusted Mueller-Hinton Broth (MHBII) containing species-specific Alexa647N-labeled DNA oligonucleotide FISH probes and unlabeled DNA helper probes. […] 10 μL of the prepared magnetic particle mixture was then added to the well.
Four-Hour Growth: The E. coli was tested in the presence of varying inoculum of K. pneumoniae-OXA for susceptibility against 2 antimicrobial agents: Imipenem and Meropenem.
100 μL of each well of the incubated sample-antibiotic plate was transferred to a corresponding well of a dehydrated buffer plate and combined with FISH probes, helper probes, magnetic particles, and focus particles in the same manner as described above for assay time zero.
All data was then compared to CLSI standard BMD.

Trimethoprim/Sulfamethoxazole was tested, and the “sensitive/resistant call by MultiPath” value [1] was “resistant”.

O=C(O)c1cn(C2CC2)c2cc(N3CCNCC3)c(F)cc2c1=O [Ciprofloxacin] gave an MIC [2] of 0.25 mg/L (≈ 0.754 µM).

In the case of Cc1nnc(SCC2=C(C(=O)O)N3C(=O)[C@@H](NC(=O)Cn4cnnn4)[C@H]3SC2)s1 [Cefazolin], the “sensitive/resistant call by MultiPath” value [1] is reported as “resistant”.

For C[C@@H](O)[C@H]1C(=O)N2C(C(=O)O)=C(SCCN=CN)C[C@H]12 [Imipenem], the MIC [3] was < 1 mg/L.
